# Test results published in publication PMC4841555, “Optimization of the All-D Peptide D3 for Aβ Oligomer Elimination” (PLoS ONE, 2016).
# pEC50: −log10 of the molar value. Several values for one entry are separate records, joined by “and”; a condition that tells them apart may be missing. Equal entries are not always repeated. Non-standard residues stand in square brackets, D forms with d. Residues, ends and D or L forms follow the SMILES beside them.
# How the values were obtained:
# Aβ(1–42) oligomers = target: T1, Aβ(1–42) oligomers (Homo sapiens, UniProt P05067); test: QIAD assay (Aβ oligomer elimination); assay type: biochemical; details: 10 μM DB3DB3, 80 μM Aβ(1–42) preincubated 4.5 h, 40 min with peptide, density gradient centrifugation, RP-HPLC, triplicate
# T1 construct: Aβ(1–42), N-terminally biotinylated Aβ(1–42) and FITC-Aβ(1–42) were purchased from Bachem; purchased Bachem (Heidelberg, Germany)
# T1 sequence (P05067 672-713 limits assumed): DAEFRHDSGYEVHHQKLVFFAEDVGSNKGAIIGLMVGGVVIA
# Protocol: The quantitative determination of interference with Aβ(1–42) aggregate size distribution (QIAD) was performed as described before. In brief, 80 μM Aβ(1–42) was incubated in 10 mM sodium phosphate buffer, pH 7.4 for 4.5 h at 22°C with 600 rpm agitation. Aβ(1–42) aggregation was continued for an additional 40 min with or without DB peptide. The obtained partial size distribution was analyzed by applying density gradient centrifugation. 100 μl of the incubated sample was placed on top of a gradient with 5 to 50% iodixanol (Optiprep, Axis-shield, Oslo, Norway) and separated at 259.000 x g for 3 h at 4°C using an ultracentrifuge (Optima MAX-XP, Beckman Coulter, Brea, USA). Fourteen fractions of 140 μl were taken from top to bottom. […] For quantification of the Aβ(1–42) amount in each fraction, reversed-phase high performance liquid chromatography (RP-HPLC) was performed using a Zorbax SB-300 C8 column (Agilent, Böblingen, Germany) connected to an Agilent 1260 Infinity system using 30% (v/v) acetonitrile with 0.1% (v/v) trifluoroacetic acid (TFA) as the mobile phase with a flow of 1 ml/min and a column temperature of 80°C. […] The UV absorption at 214 nm was measured. For quantification of the Aβ(1–42) amount, the area under the peak representing Aβ(1–42) was calculated and the molar concentration was determined using a calibration curve. […]
# Aβ(1–42) [1] = target: T2, Aβ(1–42) (Homo sapiens, UniProt P05067); test: Aβ aggregation inhibition ELISA; assay type: biochemical; details: 400 nM Aβ(1–42), 500 mM Tris pH 7.4, 23 h, 37°C, aggregate-specific ELISA, logistic fit, three independent experiments; read-out: EC50 of inhibition of Aβ aggregate formation
# T2 construct: Aβ(1–42), N-terminally biotinylated Aβ(1–42) and FITC-Aβ(1–42) were purchased from Bachem; purchased Bachem (Heidelberg, Germany)
# T2 sequence (P05067 672-713 limits assumed): as above
# Protocol: Freshly dissolved monomeric Aβ(1–42) (400 nM in 500 mM Tris-buffer pH 7.4) was incubated with and without DB peptides in different concentrations (0.01, 0.05, 0.1, 0.5, 1, 5, 10, 50 and 100 μM for DB3 or half of the molar concentrations in case of DB3DB3) in a humidity chamber for 23 h at 37°C. The aggregation was analyzed by an enzyme-linked immunosorbent assay (ELISA). NP27 antibody in bicarbonate/carbonate buffer was used to coat the ELISA plate overnight. Then the plate was washed in PBS-Tween buffer (1x PBS + 0.05% Tween) and blocked for 2 h at room temperature with 5% casein buffer. After washing, Aβ aggregate solutions were added to the plate and incubated for 1 h at room temperature. The plate was washed again and bound Aβ aggregates were detected by biotinylated 6E10/HRP-avidin mediated immunoreaction (BioLegend, San Diego, CA USA) using TMB as detection reagent. […] Mean value and standard error were calculated from three independent experiments. EC50 was calculated by fitting the data to a logistic dose response function.
# Fig 5 Inhibition of Aβ fibril formation and Aβ aggregation disassemble by DB3 and DB3DB3. A) Monomeric Aβ(1–42) (400 nM) was mixed with different concentrations of DB3 (0.01, 0.05, 0.1, 0.5, 1, 5, 10, 50, 100 μM) and the aggregation state of Aβ was analyzed using an Aβ aggregate specific ELISA. […] All data were determined in triplicate. […]
# PC12 cells = test: MTT cell viability assay; assay type: cell-based, rat; details: 5 μM peptide without Aβ, 24 h
# Protocol: Rat pheochromocytoma PC12 cells (Leibniz Institute DSMZ, Braunschweig, Germany) were cultivated in DMEM medium supplemented with 10% fetal bovine serum and 5% horse serum. 10,000 cells per well were seeded on collagen-coated 96 well plates (Gibco, Life technology, Carlsberg, USA) and incubated in a 95% humidified atmosphere with 5% CO2 at 37°C for 24 h. […] DB peptide was then added at different concentrations and incubated for further 40 min at 21°C and 600 rpm agitation before addition to the PC12 cells. […] Cell viability was then measured using the Cell proliferation Kit I (MTT) (Roche, Basel, Switzerland) according to the manufacturer’s instruction. The absorbance of the formazan product was determined by measuring at 570 nm after subtracting the absorption at 660 nm. For absorption measurements, a Polarstar Optima plate reader (BMG, Offenburg, Germany) was used. All results were normalized to cells that were treated with buffer only.
# The cell viability assay was performed using PC12 cells in a MTT test. […] The absorption of buffer treated cells was set to 100% cell viability. […] The Mann-Whitney-U-test was used for statistical analysis. * p < 0.05; ** p < 0.01; *** p < 0.001.
# [2] = target: T3, preformed Aβ(1–42) aggregates (Homo sapiens, UniProt P05067); test: Aβ aggregate disassembly ELISA; assay type: biochemical
# T3 construct: Aβ(1–42), N-terminally biotinylated Aβ(1–42) and FITC-Aβ(1–42) were purchased from Bachem; purchased Bachem (Heidelberg, Germany)
# T3 sequence (P05067 672-713 limits assumed): as above
# Protocol: Freshly dissolved monomeric Aβ(1–42) (400 nM in 500 mM Tris-buffer pH 7.4) was incubated in a humidity chamber for 22 h at 37°C in order to preform Aβ(1–42) aggregates. These preformed aggregates were coincubated with D-peptide in different concentrations (0.01, 0.05, 0.1, 0.5, 1, 5, 10, 50, 100 μM for DB3 or with half of the molar concentrations in case of DB3DB3) for additional 22 h at 37°C. The content of Aβ aggregates was measured and evaluated in the same way as the aggregation inhibition ELISA.
# Fig 5 Inhibition of Aβ fibril formation and Aβ aggregation disassemble by DB3 and DB3DB3. A) Monomeric Aβ(1–42) (400 nM) was mixed with different concentrations of DB3 (0.01, 0.05, 0.1, 0.5, 1, 5, 10, 50, 100 μM) and the aggregation state of Aβ was analyzed using an Aβ aggregate specific ELISA. For DB3DB3 half of the molar concentrations compared to DB3 were used. Aβ without DB3 and DB3DB3 addition was taken as control. For DB3 an EC50 of 6 μM was calculated using a logistic fit model. DB3DB3 inhibited the formation of Aβ fibrils more efficiently with an EC50 of 7 nM. B) The disassembly properties of DB3 and DB3DB3 were measured using an Aβ aggregation specific ELISA. Monomeric Aβ(1–42) (400 nM) was preincubated in order to form fibrils and mixed with nine different concentrations of DB3 (0.01, 0.05, 0.1, 0.5, 1, 5, 10, 50, 100 μM). For DB3DB3, the molar concentrations were half those used for DB3. […] DB3DB3 disassembled Aβ aggregates at the lowest concentration […]. Thus, the EC50 could not be determined, but is < 10 nM. All data were determined in triplicate. The Mann-Whitney-U-test was performed for statistical analysis. * p< 0.05; ** p < 0.01; *** p < 0.001
# The Aβ aggregate disassembly ELISA was used to analyze the effect of DB3 and DB3DB3 on preformed Aβ aggregates (Fig 5B). […] The Aβ aggregates specific ELISA was used to quantify Aβ aggregates. […] The results of measured Aβ aggregates normalized to the Aβ control were plotted against the peptide concentration. The EC50 was calculated by a logarithmic dose response function.
# Aβ(1–42) [3] = target: T2, Aβ(1–42); test: Thioflavin T (ThT) fibril formation assay; assay type: biochemical; details: 20 μM Aβ(1–42), 20 μM peptide (method: 31 μg/ml), 20 μM ThT, 10 mM sodium phosphate pH 7.4, 37°C, compared after 5 h with Aβ(1–42)-only control
# Protocol: 20 μM Aβ(1–42) was mixed with 20 μM Thioflavin T (ThT) and 31 μg/ml DB3 or DB3DB3 in 10 mM sodium phosphate buffer, pH 7.4. The assay was performed using a non-binding 96 well plate (Greiner Bio-One, Frickenhausen, Germany). ThT fluorescence was measured every 15 min at λex = 440 nm and λem = 490 nm in a temperature-controlled plate reader (Polarstar Optima, BMG, Offenburg, Germany) at 37°C with 1 min agitation before every measurement. Each value was background corrected using the ThT fluorescence of a peptide solution without Aβ(1–42). To investigate the influence of DB1 to DB5 on Aβ fibril formation, a Thioflavin T (ThT) assay was performed. In an aqueous environment the benzothiazole dye has a low fluorescence. […] The emission at 490 nm is directly proportional to the quantity of amyloid fibrils. Fibril formation of Aβ can be followed in real time by measuring the ThT fluorescence. Therefore, the inhibitory effects of the D-peptides DB1 to DB5 and D3 were investigated by co-incubating these peptides with Aβ(1–42) and performing the ThT assay. Fluorescence emission data were compared after 5 h incubation, because after this period the Aβ(1–42) control (without added peptide) reached its fluorescence maximum. […] 20 μM Aβ(1–42) was mixed with 20 μM DB1 to DB5 or 10 μM DB3DB3 and the ThT fluorescence was monitored. Aβ(1–42) without peptide addition was taken as the control. The ThT fluorescence of all samples were compared after 5 h, where the control, Aβ(1–42) only, reached its maximum in fluorescence emission. The Mann-Whitney-U-test was used for statistical analysis. * p < 0.05; ** p < 0.01; *** p < 0.001.
# transgenic mice = details: ref [10], [15], [16], cited from earlier work
# From the text: We have previously selected the 12mer all-D-enantiomeric peptide D3 via mirror image phage display. In vitro, D3 binds to amyloid plaques, reduces Aβ aggregation to regular fibrils, eliminates Aβ oligomers and converts preformed fibrils into non-amyloidogenic, non-fibrillar, non-toxic aggregates. In vivo, the plaque load and cerebral inflammation of transgenic mice is reduced after injection of D3 into the brain and cognitive impairment of transgenic mice is improved after oral application. The original phage library, from which D3 was selected, coded ...
compound,measurement,setting,value
CC[C@@H](C)[C@@H](NC(=O)[C@H]1CCCN1C(=O)[C@H](N)CCCNC(=N)N)C(=O)N[C@@H](C(=O)N[C@H](CCCNC(=N)N)C(=O)N[C@H](CC(C)C)C(=O)N[C@H](CCCNC(=N)N)C(=O)N[C@@H](C(=O)N[C@H](Cc1c[nH]cn1)C(=O)N[C@H](CCC(N)=O)C(=O)N[C@H](CC(N)=O)C(=O)N[C@H](CCCNC(=N)N)C(=O)N[C@H](CCCNC(=N)N)C(=O)N1CCC[C@@H]1C(=O)N[C@@H](C(=O)N[C@@H](C(=O)N[C@H](CCCNC(=N)N)C(=O)N[C@H](CC(C)C)C(=O)N[C@H](CCCNC(=N)N)C(=O)N[C@@H](C(=O)N[C@H](Cc1c[nH]cn1)C(=O)N[C@H](CCC(N)=O)C(=O)N[C@H](CC(N)=O)C(=O)N[C@H](CCCNC(=N)N)C(N)=O)[C@H](C)O)[C@H](C)O)[C@H](C)CC)[C@H](C)O)[C@H](C)O [DB3DB3] (H-[dR][dP][dI][dT][dR][dL][dR][dT][dH][dQ][dN][dR][dR][dP][dI][dT][dR][dL][dR][dT][dH][dQ][dN][dR]-NH2),reduction of the content of Aβ oligomers,Aβ(1–42) oligomers,82%
same,pEC50,Aβ(1–42) [1],8.10 and 8.15
same,effect of peptide alone on PC12 cell viability,PC12 cells,not toxic
same,disassembly of the Aβ aggregates,"[2]; 10 nM DB3DB3 added to 400 nM Aβ, compared to Aβ in the absence of peptide",80%
same,pEC50,"[2]; 400 nM Aβ(1–42) preincubated 22 h at 37°C, then with peptide 22 h (24 h) at 37°C, ELISA, triplicate",> 8.00
"RPITRLHTDRNR [DB1, all-D D3 derivative, C-terminally amidated]",inhibition of Aβ(1–42) fibril formation (ThT fluorescence),Aβ(1–42) [3],63%
"RPITRLQTHEQR [DB5, all-D D3 derivative, C-terminally amidated]",inhibition of Aβ(1–42) fibril formation (ThT fluorescence),Aβ(1–42) [3],76%
"RPITTLQTHQNR [DB2, all-D D3 derivative, C-terminally amidated]",inhibition of Aβ(1–42) fibril formation (ThT fluorescence),Aβ(1–42) [3],49%
"RPRTRLHTHRNR [D3, 12mer all-D-enantiomeric peptide selected via mirror image phage display, C-terminally amidated]",plaque load and cerebral inflammation of transgenic mice,transgenic mice; injection of D3 into the brain,reduced
same,cognitive impairment of transgenic mice,transgenic mice; oral application,improved
same,inhibition of Aβ(1–42) fibril formation (ThT fluorescence),Aβ(1–42) [3],30%
"RPRTRLRTHQNR [DB4, all-D D3 derivative, C-terminally amidated]",inhibition of Aβ(1–42) fibril formation (ThT fluorescence),Aβ(1–42) [3],no effect
